Seven molecules from patent US20100022483A1, “Substituted Tetracycline Compounds” (Paratek Pharmaceuticals, Inc., priority 2008, published 2010) can be followed below.

Usually MIC stands for the lowest concentration found to suppress growth.

Each structure is given as a SMILES string. ≈ marks a conversion by molar mass, not a printed value. Like-named read-outs stand apart in the source and are kept apart here.

The nature of series [1]: Mammalian cytotoxicity assay (resazurin), COS-1 cells. Format: cell-based. The following applies: African green monkey, read-out: Cytotox. COS-1. The essentials: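 Resazurin read-out (0.042 mg/ml, 2 h at 37° C. then 30 min dark, room temperature; fluorescence 535/590 nm) follows 24-hour compound exposure of overnight-seeded cells, serially diluted. IC50 is the concentration giving 50% growth inhibition.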
A general note: Alamar Blue is a resazurin reagent that responds to reducing activity.

Another series relates to gram negative bacteria. Briefly: In vitro anti-bacterial activity assay (broth dilution MIC), gram negative bacteria. The series is classed as cell-based, E. coli. Summed up: (§1)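 Broth dilution MIC following CLSI M7-A2: compounds serially diluted, log-phase test strains added to final ~5×10^5 CFU/ml, incubated ~18 hours at 35° C in ambient air. Plates read on microplate reader or visually; MIC is lowest concentration inhibiting growth.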

The next series has as its system gram positive bacteria. Nature of the series: In vitro anti-bacterial activity assay (broth dilution MIC), gram positive bacteria. Format: cell-based, S. aureus. The following applies: 18 h. Summed up: as §1
Background: In broth dilution the organism is exposed to a series of concentrations in liquid medium.

A further series concerns 3T3 fibroblast cells. Briefly: In vitro phototoxicity assay (neutral red; UV light-treated vs dark control plates). The series is classed as cell-based. The following applies: for Photo Toxicity UV Tox50: UV light 50 minutes; for Photo Toxicity Dark Tox50: dark control plate. Summed up:
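Neutral red viability readout (A535 after EtOH/acetic acid extraction) compares paired plates: one exposed 50 min to UV at 1.6–1.8 mW/cm^2, one held in darkness, both dosed with compound in HBSS and recovered overnight. 3T3 fibroblast cells used; phototoxicity taken as the difference.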

The next series in a line: in vitro. The series is classed as cell-based. The following applies: Chinese hamster, Cytotox. CHO-K1.
[2] abbreviates: Escherichia coli, 18 h, E. coli D1 209, read-out: Median MIC's G− E. coli D1 209.
Setting [3] is: Escherichia coli, 18 h, E. coli MG 1655, read-out: Median MIC's G− E. coli MG 1655.
Setting [4] is: Escherichia coli, ATCC25922, 18 h, E. coli ATCC 25922, read-out: Median MIC's G− E. coli ATCC 25922.
Setting [5] is: Pseudomonas aeruginosa, 18 h, P. aeruginosa K201 PAO6609, read-out: Median MIC's G− P. aeruginosa K201 PAO6609.
[6] abbreviates: Staphylococcus aureus, S. aureus MRSA5, read-out: Median MIC's G+ S. aureus MRSA5.
[7] abbreviates: Staphylococcus aureus, S. aureus RN450, read-out: Median MIC's G+ S. aureus RN450.
The mark [8] stands for this setting: Streptococcus pneumoniae, S. pneumoniae 157E-Strep, read-out: Median MIC's G+ S. pneumoniae 157E-Strep.

`COCCN(C)CC(=O)c1ccc(O)c2c1C[C@H]1C[C@H]3[C@H](N(C)C)C(O)=C(C(N)=O)C(=O)[C@@]3(O)C(O)=C1C2=O` [BO]: the IC50 at 24 h (in series [1]; in the series “in vitro”) was above 154 µM throughout. In addition, the MIC turned out to be 64 µg/mL (≈ 118 µM) in the series on gram negative bacteria (setting [2]); 2 µg/mL (≈ 3.68 µM) in the series on gram negative bacteria (setting [3]); 2 µg/mL (≈ 3.68 µM) in the series with gram negative bacteria (setting [4]); 64 µg/mL (≈ 118 µM) in the series with gram negative bacteria (setting [5]); 4 µg/mL (≈ 7.36 µM) in the series with gram positive bacteria (setting [6]); 0.5 µg/mL (≈ 0.92 µM) in the series with gram positive bacteria (setting [7]). In the series with gram positive bacteria (setting [8]), the minimum inhibitory concentration (MIC) came out at 0.25 µg/mL (≈ 0.46 µM). Also, in the series with 3T3 fibroblast cells, the “Photo Toxicity UV Tox50” value was above 154.09 µM. Also, the “Photo Toxicity Dark Tox50” value in the series with 3T3 fibroblast cells is above 154.09 µM.

Take `CN(C)[C@@H]1C(O)=C(C(N)=O)C(=O)[C@@]2(O)C(O)=C3C(=O)c4c(O)ccc(C(=O)CNCC(C)(C)C)c4C[C@H]3C[C@@H]12` [BP]: the IC50 at 24 h (in series [1]; in “in vitro”) was above 42.9 µM each time. In addition, the minimal inhibitory concentration (MIC) in the series on gram negative bacteria (setting [2]) is 64 µg/mL (≈ 118 µM); in the series on gram negative bacteria (setting [3]), 32 µg/mL (≈ 59.1 µM); in the series with gram negative bacteria (setting [4]), 32 µg/mL (≈ 59.1 µM); with gram negative bacteria (setting [5]), 64 µg/mL (≈ 118 µM); with gram positive bacteria (setting [6]), 16 µg/mL (≈ 29.5 µM); in the series with gram positive bacteria (setting [7]), 2 µg/mL (≈ 3.69 µM). Moreover, the MIC with gram positive bacteria (setting [8]) was determined as 2 µg/mL (≈ 3.69 µM). Also, the “Photo Toxicity UV Tox50” value in the series with 3T3 fibroblast cells is above 138.32 µM. In addition, the “Photo Toxicity Dark Tox50” value in the series with 3T3 fibroblast cells is above 138.32 µM.

In the case of `COCCNCc1ccoc1-c1ccc(O)c2c1C[C@H]1C[C@H]3[C@H](N(C)C)C(O)=C(C(N)=O)C(=O)[C@@]3(O)C(O)=C1C2=O` [BQ], the IC50 at 24 h (in series [1]; in the series “in vitro”) was above 141 µM each time. Further, the MIC in the series on gram negative bacteria (setting [2]) was 64 µg/mL (≈ 113 µM); in the series with gram negative bacteria (setting [3]), 1 µg/mL (≈ 1.76 µM); with gram negative bacteria (setting [4]), 1 µg/mL (≈ 1.76 µM); in the series on gram negative bacteria (setting [5]), 64 µg/mL (≈ 113 µM); in the series with gram positive bacteria (setting [6]), 4 µg/mL (≈ 7.05 µM); with gram positive bacteria (setting [7]), 0.06 µg/mL (≈ 0.106 µM). In the series on gram positive bacteria (setting [8]), the MIC was determined as 0.06 µg/mL (≈ 0.106 µM). The “Photo Toxicity UV Tox50” value with 3T3 fibroblast cells was above 140.51 µM. For the same molecule, the “Photo Toxicity Dark Tox50” value in the series on 3T3 fibroblast cells was above 140.51 µM.

Regarding `CCOC(=O)N1CCN(CC(=O)c2ccc(O)c3c2C[C@H]2C[C@H]4[C@H](N(C)C)C(O)=C(C(N)=O)C(=O)[C@@]4(O)C(O)=C2C3=O)CC1` [BR], the IC50 at 24 h (in series [1]; in the series “in vitro”) was above 40.7 µM throughout. The MIC in the series on gram negative bacteria (setting [2]) was 64 µg/mL (≈ 104 µM); in the series with gram negative bacteria (setting [3]) it was 8 µg/mL (≈ 13.1 µM); in the series with gram negative bacteria (setting [4]) it was 8 µg/mL (≈ 13.1 µM); with gram negative bacteria (setting [5]) it was 64 µg/mL (≈ 104 µM); in the series on gram positive bacteria (setting [6]), 0.5 µg/mL (≈ 0.816 µM); with gram positive bacteria (setting [7]), 0.06 µg/mL (≈ 0.0979 µM). Also, the MIC in the series with gram positive bacteria (setting [8]) came to 0.06 µg/mL (≈ 0.0979 µM). The “Photo Toxicity UV Tox50” value with 3T3 fibroblast cells was above 131.28 µM. Moreover, the “Photo Toxicity Dark Tox50” value in the series on 3T3 fibroblast cells is above 131.28 µM.

For the molecule `CC(=O)N1CCN(CC(=O)c2ccc(O)c3c2C[C@H]2C[C@H]4[C@H](N(C)C)C(O)=C(C(N)=O)C(=O)[C@@]4(O)C(O)=C2C3=O)CC1` [BS], the IC50 at 24 h (in series [1]; in the series “in vitro”) was above 145 µM in each case. The MIC with gram negative bacteria (setting [2]) came to 64 µg/mL (≈ 110 µM); in the series on gram negative bacteria (setting [3]), 32 µg/mL (≈ 54.9 µM); with gram negative bacteria (setting [4]) it was 64 µg/mL (≈ 110 µM); with gram negative bacteria (setting [5]), 64 µg/mL (≈ 110 µM); with gram positive bacteria (setting [6]), 8 µg/mL (≈ 13.7 µM); in the series on gram positive bacteria (setting [7]), 1 µg/mL (≈ 1.72 µM). Besides, in the series on gram positive bacteria (setting [8]), the MIC amounted to 1 µg/mL (≈ 1.72 µM). Further, the “Photo Toxicity UV Tox50” value in the series with 3T3 fibroblast cells is above 144.92 µM. For the same molecule, the “Photo Toxicity Dark Tox50” value in the series on 3T3 fibroblast cells is above 144.92 µM.

For `CN(C)[C@@H]1C(O)=C(C(N)=O)C(=O)[C@@]2(O)C(O)=C3C(=O)c4c(O)ccc(C(=O)CNCC(F)(F)F)c4C[C@H]3C[C@@H]12` [BT], the IC50 at 24 h (in series [1]; in the series “in vitro”) was above 47 µM throughout. Besides, the MIC in the series with gram negative bacteria (setting [2]) came out at 64 µg/mL (≈ 116 µM); in the series on gram negative bacteria (setting [3]), 8 µg/mL (≈ 14.5 µM); in the series on gram negative bacteria (setting [4]), 2 µg/mL (≈ 3.61 µM); with gram negative bacteria (setting [5]) it was 64 µg/mL (≈ 116 µM); in the series on gram positive bacteria (setting [6]), 2 µg/mL (≈ 3.61 µM); in the series on gram positive bacteria (setting [7]), 0.06 µg/mL (≈ 0.108 µM). For the same molecule, the MIC with gram positive bacteria (setting [8]) amounted to 0.06 µg/mL (≈ 0.108 µM). The “Photo Toxicity UV Tox50” value in the series with 3T3 fibroblast cells was above 151.65 µM. Further, in the series with 3T3 fibroblast cells, the “Photo Toxicity Dark Tox50” value is above 151.65 µM.

On to `CN(C)[C@@H]1C(O)=C(C(N)=O)C(=O)[C@@]2(O)C(O)=C3C(=O)c4c(O)ccc(C(=O)CN5CCN(C6CCCCC6)CC5)c4C[C@H]3C[C@@H]12` [BU], for which the IC50 at 24 h (in series [1]; in the series “in vitro”) was above 123 µM each time. Further, the MIC in the series with gram negative bacteria (setting [2]) amounted to 2 µg/mL (≈ 3.21 µM); with gram negative bacteria (setting [3]), 0.5 µg/mL (≈ 0.803 µM); in the series on gram negative bacteria (setting [4]), 1 µg/mL (≈ 1.61 µM); with gram negative bacteria (setting [5]), 64 µg/mL (≈ 103 µM); with gram positive bacteria (setting [6]) it was 1 µg/mL (≈ 1.61 µM); in the series with gram positive bacteria (setting [7]), 0.13 µg/mL (≈ 0.209 µM). In addition, in the series on gram positive bacteria (setting [8]), the MIC was determined as 0.06 µg/mL (≈ 0.0964 µM). In the series on 3T3 fibroblast cells, the “Photo Toxicity UV Tox50” value is above 122.93 µM. The “Photo Toxicity Dark Tox50” value in the series with 3T3 fibroblast cells was above 122.93 µM.
